Reference: patent publication US9845310B2 (priority 2015, dated 2017)

target: APJ (Homo sapiens (Human), UniProt P35414); assay: [35S]GTPγS binding assay on membranes from CHO cells stably expressing human APJ receptor; assay type: biochemical; settings: Activity hAPJ SPA EC50 IP (μM)
Sequence (P35414 whole entry): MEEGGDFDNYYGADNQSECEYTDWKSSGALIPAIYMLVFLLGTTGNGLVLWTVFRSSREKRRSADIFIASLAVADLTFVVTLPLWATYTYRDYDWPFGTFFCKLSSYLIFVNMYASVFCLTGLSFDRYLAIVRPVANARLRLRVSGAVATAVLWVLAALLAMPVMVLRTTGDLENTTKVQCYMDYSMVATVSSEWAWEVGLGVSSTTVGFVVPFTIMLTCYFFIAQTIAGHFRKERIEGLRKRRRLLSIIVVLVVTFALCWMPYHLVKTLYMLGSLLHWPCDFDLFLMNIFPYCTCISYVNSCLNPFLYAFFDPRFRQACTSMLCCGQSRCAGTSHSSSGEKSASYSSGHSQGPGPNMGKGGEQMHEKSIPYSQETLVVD
Method: A GTPγS binding assay was performed on membranes prepared from CHO cells stably expressing human APJ receptor. The optimum experimental conditions for the concentrations of GDP, MgCl2, and NaCl in the assay buffer were initially determined. The assay was performed in assay buffer [20 mM HEPES, pH 7.5, 5 mM MgCl2, and 0.1% (w/v) BSA with 200 mM NaCl, 3 M GDP] and membranes expressing human APJ receptor/well along with WGA PS beads. The reaction was initiated by addition of 0.2 nM [^35S]GTPγS (Perkin Elmer Life and Analytical Sciences, Waltham USA) in the absence or presence of various ligands and incubated at RT for 90 min. Nonspecific binding was determined in the presence of 100 M GTPγS and was always less than 0.2% of total binding.

Row | Structure (SMILES) | EC50 [µM]
1 | COc1cccc(OC)c1-n1c(NS(=O)(=O)[C@@H](C)[C@H](C)c2ncc(C#N)cn2)nnc1-c1cncc(C)c1 [Example 697.0, (2S,3R)-3-(5-cyano-2-pyrimidinyl)-N-(4-(2,6-dimethoxyphenyl)-5-(5-methyl-3-pyridinyl)-4H-1,2,4-triazol-3-yl)-2-butanesulfonamide] | 0.0007
2 | COc1cccc(OC)c1-n1c(NS(=O)(=O)[C@@H](C)[C@H](C)c2ncc(C)cn2)nnc1-c1cncc(C2CC2)c1 [Example 734.0, (2S,3R)-N-(5-(5-cyclopropylpyridin-3-yl)-4-(2,6-dimethoxyphenyl)-4H-1,2,4-triazol-3-yl)-3-(5-methylpyrimidin-2-yl)butane-2-sulfonamide] | 0.002
3 | COc1cccc(OC)c1-n1c(NS(=O)(=O)C[C@H](O)c2ccc(Cl)cc2S(C)(=O)=O)nnc1-c1cncc(C)c1 (mixture of isomers) [Example 457.0, (2R)-2-(4-chloro-2-(methylsulfonyl)phenyl)-N-(4-(2,6-dimethoxyphenyl)-5-(5-methyl-3-pyridinyl)-4H-1,2,4-triazol-3-yl)-2-hydroxyethanesulfonamide and (2S)-2-(4-chloro-2-(methylsulfonyl)phenyl)-N-(4-(2,6-dimethoxyphenyl)-5-(5-methyl-3-pyridinyl)-4H-1,2,4-triazol-3-yl)-2-hydroxyethanesulfonamide] | 0.0003
4 | CC#Cc1cnc([C@@H](OC)[C@H](C)S(=O)(=O)Nc2nnc(-c3cncc(C)c3)n2-c2c(OC)cccc2OC)nc1 [Example 535.0, (1R,2S)-N-(4-(2,6-dimethoxyphenyl)-5-(5-methylpyridin-3-yl)-4H-1,2,4-triazol-3-yl)-1-methoxy-1-(5-(prop-1-yn-1-yl)pyrimidin-2-yl)propane-2-sulfonamide] | 0.0013
5 | COc1cccc(-c2nnc(NS(=O)(=O)CCc3ccc(C#N)cn3)n2-c2c(OC)cccc2OC)n1 [Example 550.0, 2-(5-cyanopyridin-2-yl)-N-(4-(2,6-dimethoxyphenyl)-5-(6-methoxypyridin-2-yl)-4H-1,2,4-triazol-3-yl)ethanesulfonamide] | 0.0008
6 | COc1cccc(-c2nnc(NS(=O)(=O)C[C@H](OC)c3ccc(C#N)cc3S(C)(=O)=O)n2-c2c(OC)cccc2OC)n1 (mixture of isomers) [Example 484.0, (2R)-2-(4-cyano-2-(methylsulfonyl)phenyl)-N-(4-(2,6-dimethoxyphenyl)-5-(6-methoxy-2-pyridinyl)-4H-1,2,4-triazol-3-yl)-2-methoxyethanesulfonamide and (2S)-2-(4-cyano-2-(methylsulfonyl)phenyl)-N-(4-(2,6-dimethoxyphenyl)-5-(6-methoxy-2-pyridinyl)-4H-1,2,4-triazol-3-yl)-2-methoxyethanesulfonamide] | 0.00026
7 | COc1cccc(-c2nnc(NS(=O)(=O)[C@@H](C)[C@H](O)c3ccc(F)cc3)n2-c2c(OC)cccc2OC)n1 (mixture of isomers) [Example 283.0] | 0.00096
8 | COc1cccc(-c2nnc(NS(=O)(=O)C[C@H](OC)c3ccc(F)cn3)n2-c2c(OC)cccc2OC)n1 (mixture of isomers) [Example 328.0, (2R)-N-(4-(2,6-dimethoxyphenyl)-5-(6-methoxy-2-pyridinyl)-4H-1,2,4-triazol-3-yl)-2-(5-fluoro-2-pyridinyl)-2-methoxyethanesulfonamide and (2S)-N-(4-(2,6-dimethoxyphenyl)-5-(6-methoxy-2-pyridinyl)-4H-1,2,4-triazol-3-yl)-2-(5-fluoro-2-pyridinyl)-2-methoxyethanesulfonamide] | 0.00033
9 | COc1cccc(OC)c1-n1c(NS(=O)(=O)[C@@H](C)[C@H](C)c2ncc(F)cn2)nnc1-c1cccnc1 (single isomer, unassigned) [Example 183.0, (2R,3S)-N-(4-(2,6-dimethoxyphenyl)-5-(3-pyridinyl)-4H-1,2,4-triazol-3-yl)-3-(5-fluoro-2-pyrimidinyl)-2-butanesulfonamide or (2S,3R)-N-(4-(2,6-dimethoxyphenyl)-5-(3-pyridinyl)-4H-1,2,4-triazol-3-yl)-3-(5-fluoro-2-pyrimidinyl)-2-butanesulfonamide] | 0.06
10 | COc1ccc(Cl)c(OC)c1-n1c(-c2cncc(C)c2)nnc1S(=O)(=O)NCCc1ccc(Cl)cc1 [Example 373.0, 4-(3-chloro-2,6-dimethoxyphenyl)-N-(2-(4-chlorophenyl)ethyl)-5-(5-methyl-3-pyridinyl)-4H-1,2,4-triazole-3-sulfonamide] | 0.31
11 | COc1cccc(OC)c1-n1c(NS(=O)(=O)[C@@H](C)[C@H](OC)c2ccc(Cl)cn2)nnc1-c1cccnc1 (mixture of isomers) [Example 529.0, (1S,2R)-1-(5-chloro-2-pyridinyl)-N-(4-(2,6-dimethoxyphenyl)-5-(3-pyridinyl)-4H-1,2,4-triazol-3-yl)-1-methoxy-2-propanesulfonamide and (1R,2S)-1-(5-chloro-2-pyridinyl)-N-(4-(2,6-dimethoxyphenyl)-5-(3-pyridinyl)-4H-1,2,4-triazol-3-yl)-1-methoxy-2-propanesulfonamide] | 0.00048

same assay, conditions: read-out: Activity hAPJ SPA EC50 IP

Row | Structure (SMILES) | EC50 [µM]
12 | COc1cccc(OC)c1-n1c(NS(=O)(=O)[C@@H](C)Cc2ncc(F)cn2)nnc1-c1cncc(C)c1 (mixture of isomers) [Example 207.0, (S)-N-(4-(2,6-dimethoxyphenyl)-5-(5-methylpyridin-3-yl)-4H-1,2,4-triazol-3-yl)-1-(5-fluoropyrimidin-2-yl)propane-2-sulfonamide and (R)-N-(4-(2,6-dimethoxyphenyl)-5-(5-methylpyridin-3-yl)-4H-1,2,4-triazol-3-yl)-1-(5-fluoropyrimidin-2-yl)propane-2-sulfonamide] | 0.0033
13 | COc1cccc(OC)c1-n1c(NS(=O)(=O)[C@@H]2CCCO[C@@H]2c2ncc(C)cn2)nnc1-c1cncc(C)c1 (single isomer, unassigned) [Example 645.0] | 0.06
14 | CCNC(=O)c1cccc(-c2nnc(NS(=O)(=O)[C@@H](C)Cc3ncc(F)cn3)n2-c2c(OC)cccc2OC)n1 (mixture of isomers) [Example 228.0, 6-(4-(2,6-dimethoxyphenyl)-5-((((1S)-2-(5-fluoro-2-pyrimidinyl)-1-methylethyl)sulfonyl)amino)-4H-1,2,4-triazol-3-yl)-N-ethyl-2-pyridinecarboxamide and 6-(4-(2,6-dimethoxyphenyl)-5-((((1R)-2-(5-fluoro-2-pyrimidinyl)-1-methylethyl)sulfonyl)amino)-4H-1,2,4-triazol-3-yl)-N-ethyl-2-pyridinecarboxamide] | 0.0053
15 | CCO[C@@H](c1cnc(C)cn1)[C@@H](C)S(=O)(=O)Nc1nnc(-c2cccc(OC)n2)n1-c1c(OC)cccc1OC (single isomer, unassigned) [Example 589.0, (1S,2R)-N-(4-(2,6-dimethoxyphenyl)-5-(6-methoxy-2-pyridinyl)-4H-1,2,4-triazol-3-yl)-1-ethoxy-1-(5-methyl-2-pyrazinyl)-2-propanesulfonamide or (1R,2S)-N-(4-(2,6-dimethoxyphenyl)-5-(6-methoxy-2-pyridinyl)-4H-1,2,4-triazol-3-yl)-1-ethoxy-1-(5-methyl-2-pyrazinyl)-2-propanesulfonamide] | 0.02
16 | COc1cccc(-c2nnc(NS(=O)(=O)[C@H](C)[C@@H](O)c3cn(C)cn3)n2-c2c(OC)cccc2OC)n1 (mixture of isomers) [Example 258.0, (1S,2R)-N-(4-(2,6-dimethoxyphenyl)-5-(6-methoxypyridin-2-yl)-4H-1,2,4-triazol-3-yl)-1-hydroxy-1-(1-methyl-1H-imidazol-4-yl)propane-2-sulfonamide and (1R,2S)-N-(4-(2,6-dimethoxyphenyl)-5-(6-methoxypyridin-2-yl)-4H-1,2,4-triazol-3-yl)-1-hydroxy-1-(1-methyl-1H-imidazol-4-yl)propane-2-sulfonamide] | 0.002
17 | COc1cccc(OC)c1-n1c(NS(=O)(=O)[C@@H](C)[C@H](O)c2ccc(C#N)cc2)nnc1-c1cncc(C)c1 (single isomer, unassigned) [Example 249.0, (1R,2S)-1-(4-cyanophenyl)-N-(4-(2,6-dimethoxyphenyl)-5-(5-methyl-3-pyridinyl)-4H-1,2,4-triazol-3-yl)-1-hydroxy-2-propanesulfonamide or (1S,2R)-1-(4-cyanophenyl)-N-(4-(2,6-dimethoxyphenyl)-5-(5-methyl-3-pyridinyl)-4H-1,2,4-triazol-3-yl)-1-hydroxy-2-propanesulfonamide] | 0.0011
18 | COc1cccc(OC)c1-n1c(NS(=O)(=O)[C@@H]2CCCO[C@@H]2c2ncc(C)cn2)nnc1-c1cncc(C)c1 (single isomer, unassigned) [Example 646.0] | 0.053
19 | COc1cccc(OC)c1-n1c(NS(=O)(=O)[C@H](C)[C@@H](OC(C)C)c2ncc(C)cn2)nnc1-c1cccnc1 (stereo in doubt) [Example 624.0, (1S,2R)-N-(4-(2,6-dimethoxyphenyl)-5-(3-pyridinyl)-4H-1,2,4-triazol-3-yl)-1-(1-methylethoxy)-1-(5-methyl-2-pyrimidinyl)-2-propanesulfonamide, (1R,2S)-N-(4-(2,6-dimethoxyphenyl)-5-(3-pyridinyl)-4H-1,2,4-triazol-3-yl)-1-(1-methylethoxy)-1-(5-methyl-2-pyrimidinyl)-2-propanesulfonamide] | 0.16
20 | COc1cccc(OC)c1-n1c(NS(=O)(=O)[C@@H](C)[C@H](O)c2ccc(C#N)cc2)nnc1-c1cncc(C)c1 (mixture of isomers) [Example 247.0, (1R,2S)-1-(4-cyanophenyl)-N-(4-(2,6-dimethoxyphenyl)-5-(5-methyl-3-pyridinyl)-4H-1,2,4-triazol-3-yl)-1-hydroxy-2-propanesulfonamide and (1S,2R)-1-(4-cyanophenyl)-N-(4-(2,6-dimethoxyphenyl)-5-(5-methyl-3-pyridinyl)-4H-1,2,4-triazol-3-yl)-1-hydroxy-2-propanesulfonamide] | 0.0038
21 | COc1cccc(OC)c1-n1c(NS(=O)(=O)[C@@H]2CCCO[C@@H]2c2ncc(C)cn2)nnc1-c1cncc(C)c1 (single isomer, unassigned) [Example 643.0] | 0.15
